The data set is described as follows: Human HepG2 cell viability assay in 384 well format. The format is toxicity, cell-based. Also on record: dose 125 nL, time 70.5 hour; concentration not given beside the values. The conditions noted are these: HepG2 cells, read-out: Inhibition.

`COCc1nn(CC2CC2)c2c1CN(C(=O)c1ccno1)CC2`: the cytotoxicity at 70.5 h is -3.21%. Then `CCOCc1nn(C)c2c1CN(C(=O)c1ccno1)CC2`, with -4.99%; and `Cn1cc(CN2CCC3(CCCN(C(=O)c4cnccn4)C3)C2)cn1` (centres undefined), with -5.89%. Regarding `CO[C@H]1CN(C(=O)c2ccc(C)o2)[C@@H]2CCCO[C@H]12`, the cytotoxicity at 70.5 h is -0.145%.

Take `CNC(=O)C1Cn2ccnc2C2(CCN(Cc3csc(C)n3)CC2)O1` (centres undefined): the cytotoxicity at 70.5 h is -2.63%. As to `CCn1c(SCC(=O)N2CCCC2)nc2cc(C)[nH]c2c1=O`, the cytotoxicity at 70.5 h was 36.5%. Regarding `Cc1cc2nc(SCC(=O)N3CCCC3)n(C)c(=O)c2[nH]1`, the cytotoxicity at 70.5 h is -3.73%. Turning to `Cc1cc(-n2nnc(C(=O)O)c2-c2ccncc2)ccc1F`, the cytotoxicity at 70.5 h is -20%. Next, `CCc1ccc(-n2nnc(C(=O)O)c2-c2ccncc2)cc1`: -4.02%.

On to `CCc1ccc(C(O)CN2CCN(c3cccc(OC)c3)CC2)cc1` (centres undefined), for which the cytotoxicity at 70.5 h was -29.4%.

Regarding `O=C(O)c1nnn(-c2cc(F)cc(F)c2)c1-c1ccncc1`, the cytotoxicity at 70.5 h is 8.43%. As for `O=C(O)c1nnn(-c2ccc(C(F)(F)F)cc2)c1-c1ccncc1`, the cytotoxicity at 70.5 h was -26.2%. Turning to `CC(C)OCCCNC(=O)CC1(Cn2cnnn2)CCCCC1`, the cytotoxicity at 70.5 h was -8.88%. Regarding `O=C(Cn1ccc2ccc(F)cc21)NCc1ccc(C(=O)O)cc1`, the cytotoxicity at 70.5 h stood at 18%.

Regarding `O=C(COc1coc(CN2CCCCC2)cc1=O)c1ccc(Cl)cc1`, the cytotoxicity at 70.5 h was -23.2%. As to `CC(C)CCNc1c(C#N)c2c(c3nncn13)CN(C)CC2`, the cytotoxicity at 70.5 h is -3.96%. Next, `CN1CCc2c(C#N)c(NCc3ccccc3)n3cnnc3c2C1`: 17.9%; `CN1CCc2c(C#N)c(NCCN3CCOCC3)n3cnnc3c2C1`: -3.13%. Then `O=C(O)C1CCCN(C(=O)CCn2ccc3c(Br)cccc32)C1` (centres undefined), with -12.2%; and `O=C(CCn1ccc2ccc(Cl)cc21)NCc1ccc(C(=O)O)cc1`, with -0.8%. Next, `Cc1cccc(C(=O)Oc2cc(=O)n3cccc(C)c3n2)c1`: -5.1%; `CCOc1ccccc1C(=O)Oc1cc(=O)n2cccc(C)c2n1`: -21.9%. For `Cc1cc(=O)n(CC(=O)NC(C)C)c(Nc2ccc(F)c(C)c2)n1`, the cytotoxicity at 70.5 h stood at 23.2%. For `CCC(C)NC(=O)Cn1c(Nc2cc(C)cc(C)c2)nc(C)cc1=O` (centres undefined), the cytotoxicity at 70.5 h is 0.214%. As to `CC/N=c1\nc(NCC)nc2n1C(O)(Nc1cc(Cl)ccc1Cl)CS2` (centres undefined), the cytotoxicity at 70.5 h turned out to be 17.8%. With `Cc1cc(C)cc(Nc2nc(C)cc(=O)n2CC(=O)NC(C)C)c1`, the cytotoxicity at 70.5 h was -5.12%. Then `COCCNC(=O)Cn1c(-c2cccc(F)c2)nc(C)c(CCO)c1=O`, with -7.96%; and `O=c1[nH]nc2c(S(=O)(=O)N3CCN(c4ccc(F)cc4)CC3)cccn12`, with 20.6%. As for `N#Cc1cnc2ccccc2c1N1CCC(C(=O)O)CC1`, the cytotoxicity at 70.5 h was -4.5%. Then `O=C(O)c1nc(SCc2ccc(F)cc2)ncc1Br`, with -7.86%; and `c1ccc(-c2nnc3sc(CCN4CCCC4)nn23)cc1`, with -5.25%. Then `CCOC(=O)C1CCN(C(=O)c2cc(F)ccc2-n2cnnn2)CC1`, with 3.28%; and `NC(=O)C1CCN(C(=O)c2cc(Br)ccc2-n2cnnn2)CC1`, with 27.7%. On to `CSc1nc2ncc3c(=O)n(CCN4CCCCC4)ccc3n2n1`, for which the cytotoxicity at 70.5 h is -4.31%. Next, `COC(=O)C(NC(=O)Nc1ccc(C(C)=O)cc1)C(C)C` (centres undefined): -5.76%; `COC(=O)Cn1nc(-c2ccccc2F)ccc1=O`: 19.4%.

On to `CC(=O)Cn1nc(-c2ccccc2F)ccc1=O`, for which the cytotoxicity at 70.5 h is -3.88%.

Regarding `CCN(CC)Cc1nnc2sc(-c3cc(C(C)C)[nH]n3)nn12`, the cytotoxicity at 70.5 h was -8.88%.

Take `NC(=O)c1c(NC(=O)CCC(=O)O)sc2c1CCc1ccccc1-2`: the cytotoxicity at 70.5 h is -9.16%. For `NC(=O)c1c(NC(=O)CCCC(=O)O)sc2c1CCc1ccccc1-2`, the cytotoxicity at 70.5 h is 10.4%. As for `Cc1cccc(CSc2ncc(Cl)c(C(=O)O)n2)c1`, the cytotoxicity at 70.5 h is -11%. Turning to `O=C(O)c1nc(SCc2ccccc2)ncc1Br`, the cytotoxicity at 70.5 h was -8.29%. As to `CCOc1cc(CNCCCn2ccnc2)cc(Cl)c1OCC`, the cytotoxicity at 70.5 h is 19.9%. With `COc1ccc(Cl)cc1CNCCCn1ccnc1`, the cytotoxicity at 70.5 h is -2.31%. Take `Cc1c(CNS(=O)(=O)c2cccc(COC(C)C)c2)cnn1C`: the cytotoxicity at 70.5 h is -5.71%. As to `CCn1nc(C)c2nnn(CC(=O)Nc3ccccc3)c(=O)c21`, the cytotoxicity at 70.5 h is -10.7%. Consider `CC(C)CN1Cc2nc(N3CCC(O)CC3)ncc2C1=O`, for which the cytotoxicity at 70.5 h amounted to 12.9%. In the case of `COc1c(Br)c(C(=O)NC2CCCCC2)nn1C`, the cytotoxicity at 70.5 h was -15%.

Consider `Cn1ncc(C(=O)N2CCN(S(C)(=O)=O)CC2)c1Cl`, for which the cytotoxicity at 70.5 h turned out to be 20.9%. As for `CC(C)S(=O)(=O)N1CCN(C(=O)c2cnn(C)c2Cl)CC1`, the cytotoxicity at 70.5 h is -12.2%. In the case of `Cc1nn(C)c(C)c1NC(=O)CCn1ncc2ccc(Cl)cc21`, the cytotoxicity at 70.5 h is -11.9%. Regarding `CCn1nc(C)c2nnn(CC(=O)Nc3ccccc3F)c(=O)c21`, the cytotoxicity at 70.5 h is -4.52%. Then `CCn1nc(C)c2nnn(CC(=O)Nc3cccc(F)c3)c(=O)c21`, with -5.5%; and `CCC(=O)Nc1nnc(CCOc2ccccc2)s1`, with -2.19%; and `CCC(=O)Nc1nnc(CCOc2ccccc2OC)s1`, with -11.7%. For the compound `COCc1nc(N(C)C)ncc1C(=O)Nc1ccc(Cl)cc1`, the cytotoxicity at 70.5 h is -11.1%. On to `CCn1cc(NC(=O)CN2C(=O)CC(C)(C)c3ccccc32)cn1`, for which the cytotoxicity at 70.5 h was -4.43%. For `Cc1cc(NC(=O)CN2C(=O)CC(C)(C)c3ccccc32)no1`, the cytotoxicity at 70.5 h was -3%. In the case of `CCOCCCNC(=O)c1nnn(Cc2ccccc2)c1OC`, the cytotoxicity at 70.5 h is -4.93%. Take `O=C(Nc1cc(-c2cccnc2)no1)C1CCCCC1`: the cytotoxicity at 70.5 h is -4.13%. Then `CNC(=O)c1cc(-c2ccccc2)nc2ncnn12`, with 7.79%; and `COCCNC(=O)c1cc(C(C)C)nc(N2CCCCC2)n1`, with -9.32%. Regarding `CCN1CCN(C(=O)C2CC(=O)N(c3cnn(C(C)C)c3)C2)CC1` (centres undefined), the cytotoxicity at 70.5 h was -1.53%. Take `CC(C)n1cc(N2CC(C(=O)N3CCc4ccccc4C3)CC2=O)cn1` (centres undefined): the cytotoxicity at 70.5 h stood at 26.3%. `NCc1n[nH]c(-c2cccc(F)c2)n1`: the cytotoxicity at 70.5 h came out at 32.2%. Next, `COc1cc(-c2n[nH]c(CCN)n2)cc(OC)c1OC`: 22.8%. `OCc1n[nH]c(-c2ccc(F)cc2)n1`: the cytotoxicity at 70.5 h was -13.2%. Next, `Cc1ccc2c(c1)c(C)cc(=O)n2CCC#N`: 0.982%. For the compound `CC(C)c1cc(C(=O)NCCCN(C)C)nc(N2CCCC2)n1`, the cytotoxicity at 70.5 h is -8.44%.

As to `CCn1nc(C)c2nc(C(C)C)nc(NCCOC)c21`, the cytotoxicity at 70.5 h is -5.06%. As to `COc1cc2cc(C(=O)N[C@@H](C)C(=O)O)n(C)c2c(OC)c1OC`, the cytotoxicity at 70.5 h is -4.88%. Regarding `O=C(Cn1cc(I)cn1)N1CCCC1`, the cytotoxicity at 70.5 h was -3.36%. Then `CC(C)NC(=O)c1n[nH]c(-n2cnnc2)n1`, with -0.175%; and `Cc1nc(N2CCN(C(=O)c3ccccc3)CC2)c2c(n1)c(C)nn2C`, with -2.09%; and `CCn1cc(N2Cc3nc(N4CCN(C)CC4)ncc3C2=O)cn1`, with -7.74%. As for `CCn1nc(C)c2nnn(CC(=O)Nc3cccc(Cl)c3)c(=O)c21`, the cytotoxicity at 70.5 h is -5.39%. As for `Cc1nn(C)c2c(=O)n(CC(=O)Nc3cc(Cl)cc(Cl)c3)nnc12`, the cytotoxicity at 70.5 h is -0.624%. For the compound `CCOCc1cccc(S(=O)(=O)N2CCSCC2)c1`, the cytotoxicity at 70.5 h is -3.6%. Take `Cc1ncc(CNC(=O)c2nn(C)c3c2CS(=O)(=O)CC3)s1`: the cytotoxicity at 70.5 h is -5.86%.

On to `CN1CCc2c(C#N)c(NCc3cccnc3)n3cnnc3c2C1`, for which the cytotoxicity at 70.5 h is -27%. `CCOc1ccc(Br)cc1-c1cc(N)[nH]n1`: the cytotoxicity at 70.5 h is -6.54%. Regarding `O=C1N(CC2CC2)CCC12CCN(CC1CC1)CC2`, the cytotoxicity at 70.5 h was -6.9%. Regarding `CC(C)CN1CCC2(CCN(CC3CC3)CC2)C1=O`, the cytotoxicity at 70.5 h was -8.5%. On to `CC(C)CN1CCS(=O)(=O)[C@@H]2CCN(S(=O)(=O)CC(C)C)CC[C@@H]21`, for which the cytotoxicity at 70.5 h was -3.69%. In the case of `COCCN1CCC2(CCN(CC3CC3)CC2)C1=O`, the cytotoxicity at 70.5 h was -2.3%.

Consider `Cc1nc(CN2CCC3(CCCN(C(=O)c4cnccn4)C3)C2)cs1` (centres undefined), for which the cytotoxicity at 70.5 h is -2.34%. Next, `Cc1noc([C@@H]2C[C@@H]3CCN(CC4CC4)C[C@H]3O2)n1`: -4.17%; `O=C(Cc1ccsc1)N1C[C@@H]2COC[C@]2(COCc2cccnc2)C1`: -0.0283%; `Cc1ccccc1C(=O)N1C[C@@H]2COC[C@]2(COCc2cccnc2)C1`: 2.96%. Take `CCOC(=O)[C@]12CCCN(Cc3nccs3)C[C@H]1CN(S(C)(=O)=O)C2`: the cytotoxicity at 70.5 h was -6.29%.

On to `Cn1cnc(S(=O)(=O)N2C[C@H]3CN(Cc4ccccn4)C[C@H]3C2)c1`, for which the cytotoxicity at 70.5 h is -1.38%. Next, `CCN1C[C@H]2[C@@H](C1)N(c1ncc(F)cn1)CC[C@H]2OC`: 14.2%. For the compound `COc1ccc2c(c1)C1(CCN(Cc3nccs3)CC1)N(C)CC2`, the cytotoxicity at 70.5 h came to 5.77%.

Turning to `O=C1NCC[C@]12CN(Cc1ccncc1)C[C@H]2c1ccccc1`, the cytotoxicity at 70.5 h was -1.85%.

`O=C1NCC[C@]12CN(Cc1cccnc1)C[C@H]2c1ccccc1`: the cytotoxicity at 70.5 h was -3.58%. On to `CCOC(=O)[C@]12CCCN(Cc3nccs3)C[C@H]1CN(CCOC)C2`, for which the cytotoxicity at 70.5 h was -1.13%. `CCOC(=O)[C@]12CCCN(Cc3nccs3)C[C@H]1CN(C(C)C)C2`: the cytotoxicity at 70.5 h is -3.32%. Take `Cc1ccc(CN2CCC3(CC2)CC3CN(C)Cc2cccnc2)o1` (centres undefined): the cytotoxicity at 70.5 h is -5.02%. For the compound `O=C(CN(C1=NCCCC1)c1ccccc1)c1ccc2c(c1)OCCO2`, the cytotoxicity at 70.5 h is -16.3%.

The values above are taken from ChEMBL document CHEMBL3507680, “University of Dundee, Gates Library screen for HepG2 cell viability”.
